Test results taken from ChEMBL document CHEMBL1153309, “Synthesis and biological evaluation of platensimycin analogs” (Bioorg Med Chem Lett, 2009).
Converted amounts (≈) assume the structure as drawn.

What was measured:
Staphylococcus aureus [1] = experiment: Antimicrobial activity against wild type Staphylococcus aureus; type: functional
[2] = molecular target: T1, 3-oxoacyl-[acyl-carrier-protein] synthase 2 (Staphylococcus aureus, UniProt Q5TKS0); experiment: Inhibition of FabF-mediated type 2 fatty acid synthesis in Staphylococcus aureus by cell free assay
T1 sequence (Q5TKS0 whole entry): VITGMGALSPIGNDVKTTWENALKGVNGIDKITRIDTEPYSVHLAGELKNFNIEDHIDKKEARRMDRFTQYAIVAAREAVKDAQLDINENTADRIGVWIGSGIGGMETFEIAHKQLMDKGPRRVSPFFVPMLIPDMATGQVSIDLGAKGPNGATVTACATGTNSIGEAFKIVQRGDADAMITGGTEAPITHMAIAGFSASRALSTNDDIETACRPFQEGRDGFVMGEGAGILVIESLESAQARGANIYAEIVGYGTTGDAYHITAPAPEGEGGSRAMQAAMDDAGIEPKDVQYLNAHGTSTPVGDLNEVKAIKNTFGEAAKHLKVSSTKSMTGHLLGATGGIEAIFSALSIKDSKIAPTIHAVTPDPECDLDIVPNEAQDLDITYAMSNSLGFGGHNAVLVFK

Staphylococcus aureus [3] = experiment: Antibacterial activity against antisense fabH/fabF sensitized Staphylococcus aureus assessed as minimum concentration required to show differential zone of fabF antisense strain clearance by two plate differential sensitivity assay; type: functional

CC1=CC(=O)[C@@](C)(CCC(=O)Nc2c(O)ccc(C(=O)O)c2O)C2C3CC4CC12CC4(C)O3 (stereo not given in full)
MIC (Staphylococcus aureus [1]): 4 µg/mL (≈ 8.78 µM) | IC50 [2]: 5.27 µM | Activity (Staphylococcus aureus [3]): 0.03 µg/mL

CN1CC23CC4CC(OC4(C)C2)C3[C@](C)(CCC(=O)Nc2c(O)ccc(C(=O)O)c2O)C1=O (stereo not given in full)
MIC (Staphylococcus aureus [1]): > 64 µg/mL | IC50 [2]: > 436 µM | Activity (Staphylococcus aureus [3]): >2.7 µg/mL

CC12CC34Cc5cnoc5[C@@](C)(CCC(=O)Nc5c(O)ccc(C(=O)O)c5O)C3C(CC1C4)O2 (stereo not given in full)
MIC (Staphylococcus aureus [1]): 16 µg/mL (≈ 34.2 µM) | IC50 [2]: 22.4 µM | Activity (Staphylococcus aureus [3]): 0.3 µg/mL

Cn1ncc2c1[C@@](C)(CCC(=O)Nc1c(O)ccc(C(=O)O)c1O)C1C3CC4CC1(C2)CC4(C)O3 (stereo not given in full)
MIC (Staphylococcus aureus [1]): > 64 µg/mL | IC50 [2]: 156 µM | Activity (Staphylococcus aureus [3]): >2.7 µg/mL

CC12CC34CC1CC(O2)C3[C@](C)(CCC(=O)Nc1c(O)ccc(C(=O)O)c1O)C(=O)[C@@H]1C[C@@H]14 (stereo not given in full)
MIC (Staphylococcus aureus [1]): 1 µg/mL (≈ 2.2 µM) | IC50 [2]: 20.9 µM | Activity (Staphylococcus aureus [3]): 0.1 µg/mL

CC12CC34COC(=O)[C@@](C)(CCC(=O)Nc5c(O)ccc(C(=O)O)c5O)C3C(CC1C4)O2 (stereo not given in full)
MIC (Staphylococcus aureus [1]): > 64 µg/mL | IC50 [2]: 165 µM | Activity (Staphylococcus aureus [3]): >2.7 µg/mL

CC1CC(=O)[C@@](C)(CCC(=O)Nc2c(O)ccc(C(=O)O)c2O)C2C3CC4CC12CC4(C)O3 (stereo not given in full)
MIC (Staphylococcus aureus [1]): 4 µg/mL (≈ 8.74 µM) | IC50 [2]: 28.4 µM | Activity (Staphylococcus aureus [3]): <20 µg/mL

CC12CC34CCC(=O)[C@@](C)(CCC(=O)Nc5c(O)ccc(C(=O)O)c5O)C3C(CC1C4)O2 (stereo not given in full) [DIHYDROPLATENSIMYCIN]
MIC (Staphylococcus aureus [1]): 2 µg/mL (≈ 4.51 µM) | IC50 [2]: 4.51 µM | Activity (Staphylococcus aureus [3]): 0.4 µg/mL

CC12CC34CC1CC(O2)C3[C@](C)(CCC(=O)Nc1c(O)ccc(C(=O)O)c1O)C(=O)CC4c1ccccc1 (stereo not given in full) [PHENYL DIHYDROPLATENSIMYCIN]
MIC (Staphylococcus aureus [1]): 4 µg/mL (≈ 7.7 µM) | IC50 [2]: 7.7 µM | Activity (Staphylococcus aureus [3]): <20 µg/mL

CC12C[C@@]34C=CC(=O)[C@@](C)(CCC(=O)Nc5c(O)ccc(C(=O)O)c5O)C3[C@H](CC1C4)O2 (stereo not given in full) [PLATENSIMYCIN]
MIC (Staphylococcus aureus [1]): 0.5 µg/mL (≈ 1.13 µM) | IC50 [2]: 1.13 µM | Activity (Staphylococcus aureus [3]): 0.01 µg/mL
